According to publication PMC8362950 (PLoS ONE, 2021):
Read-outs that look alike come from different tables or passages of the source.

Columns and labels:
[1] = target: T1, 6xHis-oMLE (Oenococcus oeni, UniProt Q48796); assay type: biochemical
T1 construct: gene mleA

[2] = target: T2, GST-CBU1241 (Coxiella burnetii, UniProt Q83C87); details: substrate inhibition constant (KSi); 0.5 mM NADH, PBS pH 7.4
T2 construct: gene mdh

[3] = target: T1, 6xHis-oMLE; assay type: biochemical; remark: listed apart in the source
[4] = target: T3, 6xHis-CBU0823 (Coxiella burnetii, UniProt Q83DB5); details: substrate inhibition constant (KSi), 1 mM MnCl2, PBS pH 7.4
T3 construct: gene sfcA
T3 sequence (Q83DB5 1-565 limits assumed): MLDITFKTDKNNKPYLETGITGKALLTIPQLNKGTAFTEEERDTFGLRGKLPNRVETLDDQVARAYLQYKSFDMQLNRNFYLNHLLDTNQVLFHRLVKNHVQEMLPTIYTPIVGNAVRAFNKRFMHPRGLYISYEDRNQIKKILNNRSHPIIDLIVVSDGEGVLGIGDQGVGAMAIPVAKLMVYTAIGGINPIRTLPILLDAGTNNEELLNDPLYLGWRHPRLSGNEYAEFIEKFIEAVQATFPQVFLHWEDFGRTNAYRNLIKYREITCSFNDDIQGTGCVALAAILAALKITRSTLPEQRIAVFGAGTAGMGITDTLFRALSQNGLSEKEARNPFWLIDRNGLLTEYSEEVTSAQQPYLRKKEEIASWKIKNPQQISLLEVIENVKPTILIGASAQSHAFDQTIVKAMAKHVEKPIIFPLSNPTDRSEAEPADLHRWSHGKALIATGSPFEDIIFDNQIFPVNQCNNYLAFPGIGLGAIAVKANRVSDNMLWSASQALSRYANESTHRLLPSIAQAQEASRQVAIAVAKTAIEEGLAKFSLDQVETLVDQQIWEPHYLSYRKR

T1 sequence (Q48796 whole entry): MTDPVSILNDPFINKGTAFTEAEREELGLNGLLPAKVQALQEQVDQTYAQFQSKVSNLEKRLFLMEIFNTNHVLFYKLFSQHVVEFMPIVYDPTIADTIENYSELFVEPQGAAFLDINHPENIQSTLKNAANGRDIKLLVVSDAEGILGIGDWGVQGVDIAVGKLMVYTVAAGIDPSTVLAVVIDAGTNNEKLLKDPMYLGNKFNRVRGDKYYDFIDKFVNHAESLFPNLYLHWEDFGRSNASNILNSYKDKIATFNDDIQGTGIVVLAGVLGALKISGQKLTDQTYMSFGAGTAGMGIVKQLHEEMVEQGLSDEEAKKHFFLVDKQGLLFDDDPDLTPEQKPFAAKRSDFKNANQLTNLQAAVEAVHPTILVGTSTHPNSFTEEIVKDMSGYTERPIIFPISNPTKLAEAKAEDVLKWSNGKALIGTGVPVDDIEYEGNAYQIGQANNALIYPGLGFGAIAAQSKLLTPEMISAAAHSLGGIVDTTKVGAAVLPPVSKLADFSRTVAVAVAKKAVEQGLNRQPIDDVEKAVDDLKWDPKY
T2 sequence (Q83C87 whole entry, looked up): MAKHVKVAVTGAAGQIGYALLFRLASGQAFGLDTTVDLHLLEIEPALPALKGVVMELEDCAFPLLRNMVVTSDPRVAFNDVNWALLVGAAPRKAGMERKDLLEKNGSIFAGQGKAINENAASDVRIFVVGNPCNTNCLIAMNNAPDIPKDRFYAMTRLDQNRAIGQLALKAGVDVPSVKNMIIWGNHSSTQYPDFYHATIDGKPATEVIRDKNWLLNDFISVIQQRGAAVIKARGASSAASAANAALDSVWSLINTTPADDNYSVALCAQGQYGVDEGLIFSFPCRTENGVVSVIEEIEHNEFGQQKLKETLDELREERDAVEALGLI

Q: How did the “NADH oxidation at 340 nm” value [1] turn out when O=C(O)CC(=O)C(=O)O [oxaloacetate] was run?
A: the observed reduction of OAA indicating MDH activity was not detected in the previous characterisation

Q: And the Ki [2]?
A: 1.25 (95% CI -0.85–3.39) mM

Q: With O=C(O)C[C@H](O)C(=O)O [malate] as the compound, how does the “GC-MS detection of lactate and pyruvate” value [3] read?
A: 6xHis-oMLE could generate amounts of lactate and pyruvate significantly above baseline

Q: What about the Ki ([4]; NAD+ 2.5 mM (Fig 6 legend: 5 mM)) of the same compound?
A: 10.86 (95% CI -7.31–29.05) mM

Q: Which Ki ([4]; 3 mM malate, printed as NADH, but b28, Fig 6B and S3F show varied NAD+) does the source give for NC(=O)c1ccc[n+]([C@@H]2O[C@H](COP(=O)(O)OP(=O)(O)OC[C@H]3O[C@@H](n4cnc5c(N)ncnc54)[C@H](O)[C@@H]3O)[C@@H](O)[C@H]2O)c1 [NAD^+] here?
A: 6.30 (95% CI 0.27–12.33) mM
